Test results reported in ChEMBL document CHEMBL1152484, “3D-QSAR studies on the inhibitors of AP-1 and NF-kappaB mediated transcriptional activation” (Eur J Med Chem, 2009).

Experiment: Inhibition of AP-1/NF-kappaB transfected in human jurkat T cells assessed as inhibition of transcriptional activation
Assay type: cell-based

SMILES	IC50 [nM]
CCOC(=O)c1cnc(-c2cc(Cl)nc(Cl)c2)nc1NN1C(=O)C=C(C)C1=O	2000
CCOC(=O)c1cnc(C)nc1NN1C(=O)C=C(C)C1=O	16000
CCOC(=O)c1cnc(Sc2ccccc2)nc1NN1C(=O)C=C(C)C1=O	1000
CCOC(=O)c1cnc(-c2cccs2)nc1N(C)N1C(=O)C=C(C)C1=O	1000
CCOC(=O)c1cnc(CC2=CCCCC2)nc1NN1C(=O)C=C(C)C1=O	2000
CC1=CC(=O)N(Nc2nc(-c3cccs3)ncc2-c2nnc(C)o2)C1=O	300
CCOC(=O)c1cnc(-c2ccc(Cl)s2)nc1NN1C(=O)C=C(C)C1=O	300
CCOC(=O)c1cnc(-c2csc(C)n2)nc1NN1C(=O)C=C(C)C1=O	8000
CC1=CC(=O)N(Nc2nc(C(F)(F)F)nc3cccc(C)c23)C1=O	400
CCOC(=O)c1cnc(C(F)(F)F)nc1NN1C(=O)C=C(C)C1=O	1000
CCOC(=O)c1cnc(-c2cccc([N+](=O)[O-])c2)nc1NN1C(=O)C=C(C)C1=O	7000
CC1=CC(=O)N(Nc2nc(-c3cccs3)ncc2C#N)C1=O	5000
CC1=CC(=O)N(Nc2nc(-c3cccs3)ncc2-c2cc(C)no2)C1=O	300
CCOC(=O)c1cnc(-c2ccccc2)nc1N(C)N1C(=O)C=C(C)C1=O	2000
CCOC(=O)c1cnc(-c2ccc(F)cc2)nc1N(C)N1C(=O)C=C(C)C1=O	3000
CCOC(=O)c1cnc(-c2ccc(OC)cc2)nc1NN1C(=O)C=C(C)C1=O	899
CCOC(=O)c1cnc(C2CC2)nc1NN1C(=O)C=C(C)C1=O	1000
CCOC(=O)c1cnc(C(C)(C)C)nc1NN1C(=O)C=C(C)C1=O	1000
CCOC(=O)c1cnc(-c2ccncc2)nc1NN1C(=O)C=C(C)C1=O	6000
CCOC(=O)c1cnc(-c2cccc(OC)c2)nc1NN1C(=O)C=C(C)C1=O	5000

SMILES	IC50 [nM]
CCOC(=O)c1cnc(Cc2ccccc2)nc1NN1C(=O)C=C(C)C1=O	7000
CCOC(=O)c1cnc(C(F)(F)F)nc1NN1C(=O)C(C)=C(C)C1=O	10000
CCOC(=O)c1cnc(-c2cc(Cl)cc(Cl)c2)nc1NN1C(=O)C=C(C)C1=O	300
CCOC(=O)c1cnc(-c2cccc(Br)c2)nc1NN1C(=O)C=C(C)C1=O	700
CC1=CC(=O)N(Nc2nc(C(F)(F)F)nc3ccc([S+](C)[O-])cc23)C1=O (stereo not drawn)	1000
CCOC(=O)c1cnc(-c2ccc(F)cc2)nc1NN1C(=O)C=C(C)C1=O	700
CCOC(=O)c1cnc(CC)nc1N(C)N1C(=O)C=C(C)C1=O	10000
CCOC(=O)c1cnc(-c2cnc3ccccc3c2)nc1NN1C(=O)C=C(C)C1=O	10000
CCOC(=O)c1cnc(-c2cc3ccccc3s2)nc1NN1C(=O)C=C(C)C1=O	4000
CC1=CC(=O)N(Nc2nc(C(F)(F)F)nc3ccc(S(C)(=O)=O)cc23)C1=O	8990
CCOC(=O)c1cnc(-n2nc(C)cc2C)nc1NN1C(=O)C=C(C)C1=O	10000
CCOC(=O)c1cnc(-c2ccc(C(F)(F)F)cc2)nc1NN1C(=O)C=C(C)C1=O	400
CCOC(=O)c1cnc(-c2ccc(Cl)cc2)nc1NN1C(=O)C=C(C)C1=O	300
CCOC(=O)c1cnc(-c2ccc(C)s2)nc1NN1C(=O)C=C(C)C1=O	200
CCOC(=O)c1cnc(C(F)(F)F)nc1NN1C(=O)C=C(c2ccccc2)C1=O	20000
CCOC(=O)c1cnc(C(F)(F)F)nc1NN1C(=O)C=CC1=O	10000
CCOC(=O)c1cnc(CC)nc1NN1C(=O)C=C(C)C1=O	10000
CCOC(=O)c1cnc(Oc2ccccc2)nc1NN1C(=O)C=C(C)C1=O	15000
CCOC(=O)c1cnc(-c2ccccc2)nc1N(C(C)=O)N1C(=O)C=C(C)C1=O	4000
CCOC(=O)c1cnc(S(=O)(=O)c2ccccc2)nc1NN1C(=O)C=C(C)C1=O	10000

Further compounds by falling IC50, results first:

IC50 [nM]	SMILES
200	CC1=CC(=O)N(Nc2nc(-c3cccs3)nc3cc(N4CCOCC4)ccc23)C1=O
200	CCOC(=O)c1cnc(C(=O)c2ccco2)nc1NN1C(=O)C=C(C)C1=O
200	CC1=CC(=O)N(Nc2nc(C(F)(F)F)nc3cc(N4CCCCC4)ccc23)C1=O
200	CC1=CC(=O)N(Nc2nc(-c3cccs3)ncc2C2=NCCO2)C1=O
200	CCOC(=O)c1cnc(SC)nc1NN1C(=O)C=C(C)C1=O
200	CC1=CC(=O)N(Nc2nc(-c3cccs3)ncc2-c2nnn(C)n2)C1=O
200	CC1=CC(=O)N(Nc2nc(-c3cccs3)ncc2-c2nc(C)co2)C1=O
100	CC1=CC(=O)N(Nc2nc(C(F)(F)F)nc3ccccc23)C1=O
100	CC1=CC(=O)N(Nc2nc(C(F)(F)F)nc3ccc(O)cc23)C1=O
100	CC1=CC(=O)N(Nc2nc(-c3ccccc3)nc3ccccc23)C1=O
100	CCOC(=O)c1cnc(-c2ccsc2)nc1NN1C(=O)C=C(C)C1=O
100	CCOC(=O)c1cnc(-c2ccccc2)nc1NN1C(=O)C=C(C)C1=O
80	CSc1ccc2nc(C(F)(F)F)nc(NN3C(=O)C=C(C)C3=O)c2c1
60	CC1=CC(=O)N(Nc2nc(-c3cccs3)nc3ccccc23)C1=O
50	CC1=CC(=O)N(Nc2nc(-c3cccs3)nc3cccc(F)c23)C1=O
50	COc1cccc2c(NN3C(=O)C=C(C)C3=O)nc(-c3cccs3)nc12
50	COc1cc2nc(-c3cccs3)nc(NN3C(=O)C=C(C)C3=O)c2cc1OC
40	COc1cc2c(NN3C(=O)C=C(C)C3=O)nc(-c3cccs3)nc2c(OC)c1OC
40	CC1=CC(=O)N(Nc2nc(-c3cccs3)nc3cc(N(C)C)ccc23)C1=O
30	COc1ccc2nc(C(F)(F)F)nc(NN3C(=O)C=C(C)C3=O)c2c1
20	CC1=CC(=O)N(Nc2nc(C(F)(F)F)nc3cc(N(C)C)ccc23)C1=O
20	CC1=CC(=O)N(Nc2nc(-c3cccs3)nc3ccc(Cl)cc23)C1=O
20	CC1=CC(=O)N(Nc2nc(-c3cccs3)nc3cccc(C)c23)C1=O
20	CCOC(=O)c1cnc(-c2cccs2)nc1NN1C(=O)C=C(C)C1=O
20	COc1ccc2c(NN3C(=O)C=C(C)C3=O)nc(-c3cccs3)nc2c1
10	COc1cccc2nc(C(F)(F)F)nc(NN3C(=O)C=C(C)C3=O)c12
8	COc1cccc2nc(-c3cccs3)nc(NN3C(=O)C=C(C)C3=O)c12 [AS-602868]
3	COc1ccc2nc(-c3cccs3)nc(NN3C(=O)C=C(C)C3=O)c2c1
